Results published in ChEMBL document CHEMBL5465560, “Selectivity Literature for EUbOPEN Chemogenomic Library” (2024).

Key:
[1] = tested on: Proto-oncogene tyrosine-protein kinase receptor Ret (Homo sapiens), P07949 [V804M]; assay: Selectivity interaction (KinomeScan (DiscoverX)) EUB0000311b RET; details: at 1 µM
[2] = target: T1, Eukaryotic elongation factor 2 kinase (Homo sapiens) (UniProt O00418); assay: Selectivity interaction (Kinase panel (literature)) EUB0001199aCl EEF2K; details: at 1 µM
T1 sequence (whole entry): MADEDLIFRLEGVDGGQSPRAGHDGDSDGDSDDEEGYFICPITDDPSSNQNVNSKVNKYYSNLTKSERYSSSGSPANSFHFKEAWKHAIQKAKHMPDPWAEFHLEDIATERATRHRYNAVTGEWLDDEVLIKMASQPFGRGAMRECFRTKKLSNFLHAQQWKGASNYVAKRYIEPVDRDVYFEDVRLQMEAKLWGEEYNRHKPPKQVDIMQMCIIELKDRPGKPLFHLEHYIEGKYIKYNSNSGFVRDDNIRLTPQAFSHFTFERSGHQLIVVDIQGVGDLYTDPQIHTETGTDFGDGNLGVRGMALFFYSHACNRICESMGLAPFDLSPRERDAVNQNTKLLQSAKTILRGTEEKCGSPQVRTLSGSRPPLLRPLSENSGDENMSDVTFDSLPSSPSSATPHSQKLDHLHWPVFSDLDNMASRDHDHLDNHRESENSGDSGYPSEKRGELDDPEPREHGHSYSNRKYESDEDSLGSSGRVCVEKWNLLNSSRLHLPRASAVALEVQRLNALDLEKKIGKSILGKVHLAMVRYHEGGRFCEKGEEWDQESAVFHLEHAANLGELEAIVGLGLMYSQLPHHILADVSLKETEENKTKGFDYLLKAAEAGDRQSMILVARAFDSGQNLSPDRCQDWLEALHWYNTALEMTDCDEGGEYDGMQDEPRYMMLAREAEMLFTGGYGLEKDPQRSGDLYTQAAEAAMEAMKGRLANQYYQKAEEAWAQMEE

[3] = target: cAMP-dependent protein kinase catalytic subunit beta (Homo sapiens) (UniProt P22694); assay: Selectivity interaction (KinomeScan (DiscoverX)) EUB0000229b PRKACB; details: at 10 µM
[4] = target: T2, Muscarinic acetylcholine receptor M1 (Homo sapiens) (UniProt P11229); assay: Selectivity interaction (GPCR panel (PDSP screen)) EUB0001079a CHRM1; details: at 10 µM
T2 sequence (whole entry): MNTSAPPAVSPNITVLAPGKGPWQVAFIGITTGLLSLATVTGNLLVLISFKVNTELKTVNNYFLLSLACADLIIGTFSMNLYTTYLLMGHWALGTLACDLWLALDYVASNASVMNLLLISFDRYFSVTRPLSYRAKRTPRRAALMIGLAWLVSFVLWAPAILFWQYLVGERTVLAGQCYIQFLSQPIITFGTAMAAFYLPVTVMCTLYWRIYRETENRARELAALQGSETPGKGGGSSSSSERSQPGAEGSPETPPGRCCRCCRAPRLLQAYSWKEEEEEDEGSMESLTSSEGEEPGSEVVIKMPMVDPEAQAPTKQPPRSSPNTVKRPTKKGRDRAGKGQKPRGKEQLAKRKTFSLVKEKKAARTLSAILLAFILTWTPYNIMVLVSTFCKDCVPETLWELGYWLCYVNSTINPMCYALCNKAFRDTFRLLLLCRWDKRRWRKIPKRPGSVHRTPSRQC

[5] = target: Tyrosine-protein kinase ABL1 (Homo sapiens, UniProt P00519); assay: Selectivity interaction (ActivX KiNativ screen (kinase selectivity in THP-1 cell lysates)) EUB0000639a ABL1; type: subcellular; details: lysate, at 5 µM
Sequence of Tyrosine-protein kinase ABL1 (P00519 whole entry): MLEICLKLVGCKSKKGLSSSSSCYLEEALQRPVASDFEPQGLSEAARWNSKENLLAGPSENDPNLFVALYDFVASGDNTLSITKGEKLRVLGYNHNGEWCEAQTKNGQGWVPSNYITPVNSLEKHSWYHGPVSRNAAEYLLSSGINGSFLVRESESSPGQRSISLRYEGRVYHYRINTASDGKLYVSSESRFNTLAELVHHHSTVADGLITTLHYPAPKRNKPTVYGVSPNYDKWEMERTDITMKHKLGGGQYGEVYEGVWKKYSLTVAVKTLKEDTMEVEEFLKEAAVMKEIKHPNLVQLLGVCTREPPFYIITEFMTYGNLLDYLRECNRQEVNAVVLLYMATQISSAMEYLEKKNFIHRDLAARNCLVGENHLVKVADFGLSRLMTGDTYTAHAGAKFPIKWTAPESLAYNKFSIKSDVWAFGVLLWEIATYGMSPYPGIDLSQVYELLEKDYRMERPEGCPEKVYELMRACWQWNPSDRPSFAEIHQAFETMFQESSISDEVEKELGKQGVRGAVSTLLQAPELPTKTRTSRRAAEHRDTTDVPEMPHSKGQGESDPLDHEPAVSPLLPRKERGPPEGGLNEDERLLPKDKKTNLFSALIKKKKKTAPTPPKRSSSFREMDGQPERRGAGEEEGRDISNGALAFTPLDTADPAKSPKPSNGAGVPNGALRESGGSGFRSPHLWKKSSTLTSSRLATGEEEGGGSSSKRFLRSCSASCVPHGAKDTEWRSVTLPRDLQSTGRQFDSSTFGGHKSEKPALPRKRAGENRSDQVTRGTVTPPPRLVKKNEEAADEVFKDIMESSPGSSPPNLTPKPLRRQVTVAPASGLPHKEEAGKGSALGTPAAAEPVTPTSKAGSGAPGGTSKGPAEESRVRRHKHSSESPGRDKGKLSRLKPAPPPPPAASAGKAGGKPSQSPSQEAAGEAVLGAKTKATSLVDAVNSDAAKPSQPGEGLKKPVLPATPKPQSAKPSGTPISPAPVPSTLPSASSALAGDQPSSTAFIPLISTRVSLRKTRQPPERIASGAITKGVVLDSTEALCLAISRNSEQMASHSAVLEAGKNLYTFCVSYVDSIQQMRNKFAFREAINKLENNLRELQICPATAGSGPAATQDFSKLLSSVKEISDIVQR

[6] = Selectivity interaction (KinomeScan (DiscoverX)) EUB0000595a CDPK1; details: at 10 µM
[7] = target: Mitogen-activated protein kinase 4 (Homo sapiens) (UniProt P31152); details: at 10 µM
Sequence of Mitogen-activated protein kinase 4 (Homo sapiens) (P31152 whole entry): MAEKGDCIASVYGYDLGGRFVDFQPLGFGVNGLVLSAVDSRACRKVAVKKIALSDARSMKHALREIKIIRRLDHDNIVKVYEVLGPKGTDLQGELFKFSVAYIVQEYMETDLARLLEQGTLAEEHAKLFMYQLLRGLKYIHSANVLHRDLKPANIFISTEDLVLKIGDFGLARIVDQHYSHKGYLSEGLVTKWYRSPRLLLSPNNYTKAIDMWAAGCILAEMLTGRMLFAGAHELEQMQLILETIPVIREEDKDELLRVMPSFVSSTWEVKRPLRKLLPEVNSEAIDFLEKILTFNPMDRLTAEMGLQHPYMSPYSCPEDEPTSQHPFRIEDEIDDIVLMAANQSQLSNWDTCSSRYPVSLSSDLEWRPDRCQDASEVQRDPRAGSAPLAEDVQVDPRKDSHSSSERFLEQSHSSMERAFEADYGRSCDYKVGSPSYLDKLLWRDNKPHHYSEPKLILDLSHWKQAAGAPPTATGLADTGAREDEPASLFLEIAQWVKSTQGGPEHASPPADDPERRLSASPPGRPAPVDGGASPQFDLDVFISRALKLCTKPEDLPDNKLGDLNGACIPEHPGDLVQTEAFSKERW

[8] = target: T3, Peripheral plasma membrane protein CASK (Homo sapiens) (UniProt O14936); details: at 10 µM
T3 sequence (whole entry): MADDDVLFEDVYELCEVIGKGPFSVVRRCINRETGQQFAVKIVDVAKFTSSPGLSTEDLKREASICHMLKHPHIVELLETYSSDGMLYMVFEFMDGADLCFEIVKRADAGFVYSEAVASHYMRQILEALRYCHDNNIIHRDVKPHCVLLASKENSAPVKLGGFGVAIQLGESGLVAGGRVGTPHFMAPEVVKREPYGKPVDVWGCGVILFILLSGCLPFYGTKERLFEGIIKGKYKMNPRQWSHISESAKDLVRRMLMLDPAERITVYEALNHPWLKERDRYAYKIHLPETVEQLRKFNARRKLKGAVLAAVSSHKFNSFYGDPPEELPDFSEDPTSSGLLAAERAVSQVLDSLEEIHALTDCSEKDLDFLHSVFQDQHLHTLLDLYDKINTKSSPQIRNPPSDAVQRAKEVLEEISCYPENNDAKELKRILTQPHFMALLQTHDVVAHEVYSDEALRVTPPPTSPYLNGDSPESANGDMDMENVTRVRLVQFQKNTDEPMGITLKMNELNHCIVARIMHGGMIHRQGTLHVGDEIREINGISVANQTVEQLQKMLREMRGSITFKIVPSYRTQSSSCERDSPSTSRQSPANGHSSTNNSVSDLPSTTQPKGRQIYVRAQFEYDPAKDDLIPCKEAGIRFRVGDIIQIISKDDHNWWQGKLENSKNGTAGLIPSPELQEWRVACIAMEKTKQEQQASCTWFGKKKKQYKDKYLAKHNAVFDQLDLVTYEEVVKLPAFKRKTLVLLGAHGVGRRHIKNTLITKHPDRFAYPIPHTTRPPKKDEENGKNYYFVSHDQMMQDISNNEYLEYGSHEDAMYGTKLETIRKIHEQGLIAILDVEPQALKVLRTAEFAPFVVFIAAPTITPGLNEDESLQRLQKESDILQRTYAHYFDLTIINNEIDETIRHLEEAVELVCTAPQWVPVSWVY

[9] = target: Tyrosine-protein kinase Srms (Homo sapiens) (UniProt Q9H3Y6); assay: Selectivity interaction (KinomeScan (DiscoverX)) EUB0001619a SRMS; details: at 1 µM
Sequence of Tyrosine-protein kinase Srms (Homo sapiens) (Q9H3Y6 whole entry): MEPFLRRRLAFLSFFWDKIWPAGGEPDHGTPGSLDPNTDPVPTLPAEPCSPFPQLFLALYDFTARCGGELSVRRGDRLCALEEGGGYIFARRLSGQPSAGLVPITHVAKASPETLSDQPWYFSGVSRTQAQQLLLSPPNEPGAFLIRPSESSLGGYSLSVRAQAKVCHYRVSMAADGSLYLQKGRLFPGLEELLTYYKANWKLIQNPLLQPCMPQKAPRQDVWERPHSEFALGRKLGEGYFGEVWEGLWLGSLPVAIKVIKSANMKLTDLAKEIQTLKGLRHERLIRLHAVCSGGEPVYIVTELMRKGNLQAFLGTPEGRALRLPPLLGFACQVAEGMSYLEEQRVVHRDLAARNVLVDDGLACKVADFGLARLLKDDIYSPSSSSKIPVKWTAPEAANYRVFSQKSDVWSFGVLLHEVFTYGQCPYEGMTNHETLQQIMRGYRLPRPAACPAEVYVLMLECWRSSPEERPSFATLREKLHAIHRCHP

[10] = target: Cyclin-dependent kinase 1/cyclin B (Homo sapiens) (UniProt P06493+P14635+Q8WWL7+O95067); assay: Selectivity interaction (Upstate Kinase Profiler service (Millipore)) EUB0000056c CDK1; type: protein-complex assay; details: at 1 µM
[11] = target: Casein kinase I isoform alpha (Homo sapiens, UniProt P48729); assay: Selectivity interaction (SelectScreen profiling (Invitrogen)) EUB0000607a CSNK1A1; details: at 2 µM
Sequence of Casein kinase I isoform alpha (P48729 2-337 limits assumed): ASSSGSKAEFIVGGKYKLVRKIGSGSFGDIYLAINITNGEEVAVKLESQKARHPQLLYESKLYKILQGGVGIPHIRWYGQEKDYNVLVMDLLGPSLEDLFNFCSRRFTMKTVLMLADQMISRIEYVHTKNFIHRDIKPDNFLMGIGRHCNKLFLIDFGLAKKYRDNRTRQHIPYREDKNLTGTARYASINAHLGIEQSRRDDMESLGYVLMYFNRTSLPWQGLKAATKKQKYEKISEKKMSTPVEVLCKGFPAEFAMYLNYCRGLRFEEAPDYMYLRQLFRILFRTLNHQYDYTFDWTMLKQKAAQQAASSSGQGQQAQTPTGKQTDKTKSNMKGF

[12] = target: Casein kinase II subunit alpha' (Homo sapiens) (UniProt P19784); assay: Selectivity interaction (ProQinase) EUB0000171b CSNK2A2
Sequence of Casein kinase II subunit alpha' (Homo sapiens) (P19784 whole entry, looked up): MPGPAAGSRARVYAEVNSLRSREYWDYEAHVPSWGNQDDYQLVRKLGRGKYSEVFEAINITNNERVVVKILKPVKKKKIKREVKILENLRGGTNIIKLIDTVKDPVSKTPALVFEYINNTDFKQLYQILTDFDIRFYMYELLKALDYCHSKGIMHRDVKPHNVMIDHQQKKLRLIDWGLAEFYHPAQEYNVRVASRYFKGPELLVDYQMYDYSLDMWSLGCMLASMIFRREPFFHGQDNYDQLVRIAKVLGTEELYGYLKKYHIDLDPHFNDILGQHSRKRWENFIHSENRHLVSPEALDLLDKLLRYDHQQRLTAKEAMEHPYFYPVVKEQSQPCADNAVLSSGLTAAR

Sequence of Proto-oncogene tyrosine-protein kinase receptor Ret (Homo sapiens), P07949 [V804M] (P07949 whole entry V804M): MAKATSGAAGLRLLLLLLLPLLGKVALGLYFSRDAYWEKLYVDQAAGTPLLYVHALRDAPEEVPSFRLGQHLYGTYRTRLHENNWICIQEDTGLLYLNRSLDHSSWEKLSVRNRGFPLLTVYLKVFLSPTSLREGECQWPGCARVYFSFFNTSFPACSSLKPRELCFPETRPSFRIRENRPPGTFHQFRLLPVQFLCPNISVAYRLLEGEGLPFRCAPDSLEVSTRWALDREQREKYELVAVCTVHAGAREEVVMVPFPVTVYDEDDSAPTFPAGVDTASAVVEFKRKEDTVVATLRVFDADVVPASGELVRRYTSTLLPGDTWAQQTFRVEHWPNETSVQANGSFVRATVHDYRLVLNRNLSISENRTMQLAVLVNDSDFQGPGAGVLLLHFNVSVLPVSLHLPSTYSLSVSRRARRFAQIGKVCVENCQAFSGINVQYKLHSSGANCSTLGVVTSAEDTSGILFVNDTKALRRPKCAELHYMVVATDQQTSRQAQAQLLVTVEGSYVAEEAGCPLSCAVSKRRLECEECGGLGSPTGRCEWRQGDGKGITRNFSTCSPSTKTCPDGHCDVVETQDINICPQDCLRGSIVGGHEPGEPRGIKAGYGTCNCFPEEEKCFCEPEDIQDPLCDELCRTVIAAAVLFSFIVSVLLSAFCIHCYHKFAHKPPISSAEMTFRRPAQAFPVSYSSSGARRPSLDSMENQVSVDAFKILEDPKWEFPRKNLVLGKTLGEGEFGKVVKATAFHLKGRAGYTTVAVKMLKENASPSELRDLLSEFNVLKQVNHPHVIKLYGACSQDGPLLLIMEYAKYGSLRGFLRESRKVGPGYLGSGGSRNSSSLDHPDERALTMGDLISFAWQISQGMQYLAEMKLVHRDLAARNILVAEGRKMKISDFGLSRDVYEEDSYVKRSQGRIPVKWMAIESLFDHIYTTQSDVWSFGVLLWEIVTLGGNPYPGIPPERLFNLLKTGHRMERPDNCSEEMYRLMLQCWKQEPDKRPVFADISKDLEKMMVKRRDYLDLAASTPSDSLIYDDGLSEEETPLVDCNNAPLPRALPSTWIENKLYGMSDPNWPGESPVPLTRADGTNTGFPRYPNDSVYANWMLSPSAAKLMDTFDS

CCc1ccccc1C(=O)Nc1n[nH]c2c(C)c(F)c(C3C(C#N)=C(C)N(C)C(C)=C3C#N)cc12 [BAY-3827]
% of control [1]: 11%

CN1Cc2nccc(-c3cn(C)nc3-c3ccc(F)cc3)c2C1=O
% of inhibition [2]: -5%

COc1cc(N(C)c2ccnc3ccc(C(F)(F)F)cc23)cc(OC)c1OC
% binding [3]: 75%

Nc1cnc(N2CCc3cc(S(=O)(=O)Nc4c(F)cc(Cl)cc4F)cc(N4CCCC4=O)c32)nc1 [TP-020n]
% of inhibition [4]: -9.48%

CC[C@@H]1[C@H](F)C(=O)N[C@@H]1COc1nccc2cc(C(N)=O)c(OC)cc12 [ZIMLOVISERTIB]
% of inhibition [5]: 30.7%

COCC(=O)NC/C=C/c1ccc2ncnc(Nc3ccc(Oc4ccc(C)nc4)c(C)c3)c2c1 [CP-724714]
% of control [6]: 25%

Cc1cc([C@@H](C)Nc2ccccc2C(=O)O)c2nc(N3CCOCC3)cc(=O)n2c1 [AZD-6482]
% of control [7]: 98% | % of control [8]: 92%

N#Cc1cccc(-c2c[nH]c3ncnc(N4CCOCC4)c23)c1
% of control [9]: 94%

Cc1ccc(-c2ccc3c(ccc4sc5c(c43)NC[C@@H](C)NC5=O)n2)cn1
% of inhibition [10]: 68%

CNC(=O)Nc1ccc(-c2nc(N3CC4CCC(C3)O4)c3cnn(C4CCC5(CC4)OCCO5)c3n2)cc1
% of inhibition [11]: 2%

C=CC(=O)Nc1cccc(C(=O)Nc2ccc(Nc3cc(-c4[nH]c(SC)nc4C)ccn3)cc2)c1
% of control ([12]; at 1 µM): 80% | % of control ([12]; at 5 µM): 52%
